In the NIST ThermoML archive (doi:10.1016/j.jct.2012.02.004):

Experiment: xn = mol fraction of the nth substance listed
Conditions: 298.15 K, 101 kPa, Liquid, Taylor dispersion method

Structure (SMILES) | binary diffusion coefficient (x1 = 0) [m2/s] | binary diffusion coefficient (x1 = 0.00119) [m2/s] | binary diffusion coefficient (x1 = 0.00475) [m2/s] | binary diffusion coefficient (x1 = 0.0095) [m2/s] | binary diffusion coefficient (x1 = 0.019) [m2/s] | binary diffusion coefficient (x1 = 0.038) [m2/s]
C[N+](C)(C)CCCCCCCCCC[N+](C)(C)C.[Br-].[Br-] [decamethonium bromide] + O | 1.06e-09 | 9.9e-10 | 9.55e-10 | 9.04e-10 | 8.61e-10 | 8.43e-10
C[N+](C)(C)CCCCCCCCCCCC[N+](C)(C)C.[Br-].[Br-] + O | 1.01e-09 | 9.72e-10 | 9.45e-10 | 9.11e-10 | 8.7e-10 | 8.05e-10
